Values joined by “and” are separate entries in the source; they are usually repeats but may differ in a detail not shown here. Identical values can stand only once.
Columns and labels:
blood = conditions: 2,6-pyridinedicarboxylic acid 2.5 mM; blood 10 ul
meningococcus = assay: Meningococcus lysate spiking system (Camb2 cleavage); format: biochemical, Neisseria meningitides; conditions: 2,6-pyridinedicarboxylic acid 2.5 mM; lysate 3 ul
Text: (§1) There have been no reports of co-infection of viral and bacterial meningitis. Thus, a test for viral meningitis infection implies a negative result for bacterial meningitis. However, CSF samples infected with bacterial meningitis may have background non-specific activity that leads to false positive results in tests for enterovirus, thereby confusing the results. Background non specific activity in CSF samples could be related to bacterial proteases that can cleave the substrate, leading to a positive signal. The most frequent bacterial meningitis found in CSF include: Streptococcus pneumonia, Neisseria meningitides (meningococc), Haemophilus influenza and Klebsiella pneumonia. Accordingly, Pneumococcus (Streptococcus pneumonia, two different strains 6B and 23F) and meningococcus (Neisseria meningitides) were spiked to simulate the background non specific activity observed in CSF samples and to identify inhibitors to reduce it. A total of more than 40 inhibitors from different groups of inhibitors were tested.
The experiment shown in FIG. 22B was performed in the presence of Echo recombinant protease (1:18), in the presence of meningococcus (lysate 3 ul) or in the presence of blood (10 ul). […]

[1] = target: Echovirus 3C recombinant protease (Echovirus 30, UniProt Q9WN78); assay: Echovirus 3C recombinant protease activity with inhibitors or inhibitor cocktails (Camb2); format: biochemical
Sequence of Echovirus 3C recombinant protease (Q9WN78 1550-1732): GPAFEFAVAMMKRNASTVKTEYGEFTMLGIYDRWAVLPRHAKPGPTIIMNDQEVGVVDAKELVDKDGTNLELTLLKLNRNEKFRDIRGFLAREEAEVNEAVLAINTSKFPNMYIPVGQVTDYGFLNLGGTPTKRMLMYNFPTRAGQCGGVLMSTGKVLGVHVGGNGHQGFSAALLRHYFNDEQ
Protocol: Phosphoramidon is a strong inhibitor of many bacterial Metalloendoproteinases, thermolysin, and elastase, but a weak inhibitor of collagenase. […] Phosphoramidon was tested using the Echovirus 3C recombinant and pneumococcus (types 6B and 23F) spiking systems.
(§2) The experiment shown in FIG. 22A was performed in the presence of Echo recombinant protease (50 nM) or in the presence of two different strains of pneumococcus 6B and 23F (lysate 1 μl). The inhibitory effect was measured in the presence/absent of Phosphoramidon (20 uM).
The experiment shown in FIG. 22B was performed in the presence of Echo recombinant protease (1:18), in the presence of meningococcus (lysate 3 ul) or in the presence of blood (10 ul).
Enterovirus 3C protease (Echo), WBC lysate (corresponding to 2×10^3 cells per test), Pneomococc lysate (corresponding to 1×10^6 bacteria per test) and Meningococc lysate (corresponding to 1×10^8 bacteria per test) (5 ul each) were spiked into artificial-CSF (45 ul), followed by the addition of the indicated inhibitor cocktails (5 ul each): I8, I9a=I8+Phosphoramidon (90 μM), I9b=I8+2-6-pyridinedicarboxylic acid (2.5 mM) and I10=I8+Phosphoramidon+2-6-pyridinedicarboxylic acid. The samples with the indicated inhibitor cocktails were incubated at RT for 2.5 min followed by the addition of 50 ul 2× reaction buffer containing the substrate camb2 (final concentration 2 μM). […]

PSA = PSA (Homo sapiens, UniProt P07288); conditions: in the presence of 1.3M Na2SO4; cited from earlier work
Sequence of PSA (P07288 25-261): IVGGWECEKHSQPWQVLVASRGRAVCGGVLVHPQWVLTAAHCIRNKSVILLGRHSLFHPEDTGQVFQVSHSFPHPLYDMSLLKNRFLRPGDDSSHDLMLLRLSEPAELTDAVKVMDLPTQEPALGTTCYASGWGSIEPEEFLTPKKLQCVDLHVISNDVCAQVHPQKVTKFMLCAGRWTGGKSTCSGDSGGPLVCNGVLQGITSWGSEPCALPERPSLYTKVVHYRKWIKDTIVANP

[2] = target: T1, Recombinant protease from enterovirus strain Echo (Echovirus 30, UniProt Q9WN78); assay: Enterovirus assay optimization with recombinant Echo protease (plates, tubes, buffer, Na2SO4, substrate concentration, diluent); format: biochemical; conditions: for enzymatic activity: 0.25 uM substrate
T1 construct: Phosphoramidon was tested using the Echovirus 3C recombinant
T1 sequence (Q9WN78 1550-1732): as the sequence (Q9WN78 1550-1732) above
Protocol: • Inhibitor Cocktail: Inhibitors cocktail I10 • Enzyme dilution buffer: −25 mM HEPES pH 7.5, 150 mM NaCl, 1 mM EDTA, 10% Glycerol, 0.5 mg/ml BSA, 1M Sucrose, 0.1% Sodium azid. • 2× reaction buffer, Buffer B: 50 mM HEPES, 10 mM EDTA, 10 mM EGTA, 1.2M Na2SO4, sodium azide 0.1%, pH 8.5 • Artificial CSF: NaCl 125 mM, KCl 2.5 mM, MgCl 1 mM, NaH2PO4 1.25 mM, CaCl2 2 mM, Glucose 2.5 mM, NaHCO3 25 mM, 0.1% Sodium azide, HEPES 25 mM, pH 7.45. • Enzyme: Recombinant protease from enterovirus strain “Echo” [dilution 1:18 • Substrate: Camb-2.3, 1 mM, Camb-2.4, 2 mM. (Different batches for the same Camb2 sequence) • HEPES Buffer: HEPES 25 mM • NB tubes: Sigma Cat #Z666505 • Amber tubes: USA scientific Inc. Cat. 1620-2707 • 96 well Plate: Dark bottom NB plate—Greiner Cat. 655900
• 1. Add artiCSF±HEPES buffer to plate • 2. Prepare 400 ul HEPES buffer±RB+substrate (camb2.3 and 2.4) in both amber and NB tubes. • 3. Add enzyme to wells • 4. Add HEPES buffer±RB+substrate to wells with multichannel pipette.
The reaction buffer is a part of the enterovirus test kit of the invention. The camb-2 substrate is dissolved in the reaction buffer. The reaction buffer contains different salts to allow the tested enzyme to work at the optimal conditions. The current reaction buffer composition is: HEPES pH 7.5, 300 mM NaCl, 10 mM EDTA, 10 mM EGTA, 10% Glycerol, 1.8M Na2SO4, 0.1% Sodium azide. The amount of salt in the reaction buffer is high and allows optimal enzymatic activity. However, under these conditions, substrate solubility is affected. Thus, the reaction buffer was improved to increase substrate solubility without reducing enzymatic activity of the tested 3C protease.
300 mM NaCl and 10% glycerol was removed from the reaction buffer and several reduced concentrations of Na2SO4 (starting at 0.9M) were tested in order to determine the minimal salt requirements of the assay (Tables 31-34). Experiments were repeated at least three times by two different scientists.
CSF sample was incubated with 50 nM Echo protease and 2× reaction buffer with 0.6M Na2SO4. Also included were 3 blanks and 9 positive control repetitions.
The effect of reduction in substrate (camb2) concentration and increase in measurement time was tested. The experiment was performed at a final substrate (camb2.5) concentrations of 1, 0.5, 0.25 and 0.125 μM and data analysis was made at different time intervals: 1.5-5, 5-12 and 5-22 min (FIGS. 27A-C).
Sodium sulfate generally has an ambivalent effect: it increase 3C protease activity and reduces substrate solubility. Once it was decided that the substrate concentration would be reduced to 0.25 uM and results analyzed at between 5-10 min, the Na2SO4 concentration was optimized. […] 0.6-0.4M Na2SO4 was tested under the new assay conditions.
• Data analysis was performed between 5-10 min. • The assay activity was measured in triplicates by three scientists. The results in Table 51 are the average of the three triplicates.
To examine the effect of substrate dilution in DMSO vs. DDW under the new assay conditions, substrate stock (1 mM in DMSO) was diluted 1:8 in DMSO or in DDW to yield the working stock. The working stocks were further diluted 1:250 in 2× RB for a concentration of 0.5 uM (0.25 uM final in the well).
The assay activity was measured in triplicates by three scientists. The results in Table 52 are the average of the three triplicates.

pneumococcus 6B = assay: Pneumococcus 6B lysate spiking system (Camb2 cleavage); format: biochemical, Streptococcus pneumonia
Text: as §1, §2

pneumococcus 23F = assay: Pneumococcus 23F lysate spiking system (Camb2 cleavage); format: biochemical, Streptococcus pneumonia
Text: as §1, §2

Enterovirus 3C protease = assay: Enterovirus assay in clinical CSF samples (vs RT-PCR); format: biochemical; conditions: bacterial samples 23-25; new assay conditions
Protocol: CSF samples obtained from two clinical sites, were tested for presence of enterovirus according to the method of the invention but before the assay conditions were optimized. The samples were also tested with a combination of RT-PCR and other clinical parameters. […] Samples were considered hemolytic if red blood cell (RBC) count was above 100/ul (for the one set) or if the sample's color was reddish (for the other set, RBC count not provided).
Samples whose reaction rate exceeded the cutoff value were considered positive, and those below this value were considered negative.
Each measurement was performed by using 50 uL of CSF sample. 5 ul of inhibitor cocktail (I8) was added to the samples and incubated for 2.5 min. The reaction was initiated by the addition of 50 uL 2× reaction buffer (“2× RB”, 50 mM HEPES pH7.5, 1.8M Na2SO4, 300 mM NaCl, 10% Glycerol, 10 mM EDTA and 10 mM EGTA each) containing the substrate camb2 (final concentration 2 uM).
Thaw samples at room temperature for 30 min in a biological hood. • 2. Prepare assay layout according to the number of samples to be run in the BMG fluorimeter and the well composition shown in Table 54
Prepare sufficient amount of inhibitor cocktail I10 (150 ul for 24 wells). • 4. […] Add Echo protease to p.c. (positive control) wells. • 6. […] Add inhibitor cocktail to all wells. • 8. Add 50 ul 2× RB+substrate to all the wells. • 9. […]

[3] = Phosphoramidon 20 uM, lysate 1 μl
[4] = at least three independent experiments

## O=C(O)c1cccc(C(=O)O)n1 [2,6-pyridinedicarboxylic acid]
blood
  inhibition of blood activity: 0%
meningococcus
  inhibition of meningococcus activity: 81%
[1]
  inhibition at 2500 µM: 4.5%

## O=S(=O)([O-])[O-].[Na+].[Na+] [Na2SO4]
PSA
  increase of PSA photolytic activity: > 103 fold
[2]; 0.4M Na2SO4, average of all experiments, analysis 5-10 min
  Positive control reaction rate, 0.4M Na2SO4, Averages ± SE: 444 ± 75 RFU/min
[2]; 0.4M sodium sulfate, analysis 5-10 min
  enzymatic activity: 444
[2]; 0.5M Na2SO4, average of all experiments, analysis 5-10 min
  Positive control reaction rate, 0.5M Na2SO4, Averages ± SE: 703 ± 56 RFU/min
[2]; 0.5M sodium sulfate, analysis 5-10 min
  enzymatic activity: 700
[2]; 0.6M Na2SO4, average of all experiments, analysis 5-10 min
  Positive control reaction rate, 0.6M Na2SO4, Averages ± SE: 825 ± 31 RFU/min
[2]; 0.6M Na2SO4 final, recombinant Echo protease positive control, 0.25 uM camb2.5 substrate, data analysis 5-10 min, single experiments (EXP)
  Positive control reaction rate, 0.6M Na2SO4: 679 RFU/min and 918 RFU/min and 921 RFU/min and 739 RFU/min and 770 RFU/min and 862 RFU/min and 890 RFU/min and 824 RFU/min
[2]; 0.6M sodium sulfate, analysis 5-10 min
  enzymatic activity: 825

## CC(C)C[C@H](NP(=O)(O)O[C@@H]1O[C@@H](C)[C@H](O)[C@@H](O)[C@H]1O)C(=O)N[C@@H](Cc1c[nH]c2ccccc12)C(=O)O [Phosphoramidon]
Pneumococcus 6B; [3]
  inhibition of pneumococcus activity: 91%
Pneumococcus 6B; [4]
  inhibition of pneumococcus activity: ~90%
Pneumococcus 23F; [3]
  inhibition of pneumococcus activity: 80%
Pneumococcus 23F; [4]
  inhibition of pneumococcus activity: ~90%
Enterovirus 3C protease
  effect on unspecific background activity of bacterial CSF samples: could not abolish
[1]; Phosphoramidon 20 uM, Echo recombinant protease 50 nM
  inhibition at 20 µM: 7%
